The term Ki denotes the equilibrium dissociation constant of an inhibitor or competing ligand from its target. Low readings indicate a stronger hold on the target, high ones a looser hold on the target.

Assay [1] addresses T1, Chymotrypsinogen B (Homo sapiens, UniProt P17538). Kind of assay: (§1) Inhibition of Alpha-chymotrypsin was determined by competitive substrate assay method.
Assay [2] addresses T1, Chymotrypsinogen B. The description is as §1. The source holds these as a separate data set.

SMILES strings stand for the structures.

T1 sequence (P17538 34-164 limits assumed, other chains not shown): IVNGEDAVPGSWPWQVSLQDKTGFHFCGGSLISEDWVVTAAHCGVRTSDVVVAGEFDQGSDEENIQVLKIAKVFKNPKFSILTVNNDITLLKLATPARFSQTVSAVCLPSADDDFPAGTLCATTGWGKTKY
T1 sequence (P17538 167-263 limits assumed, other chains not shown): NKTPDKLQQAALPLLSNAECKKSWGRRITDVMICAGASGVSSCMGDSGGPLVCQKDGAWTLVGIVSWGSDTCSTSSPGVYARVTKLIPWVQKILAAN

As to `O=C1O[C@H](CBr)[C@H]1Cc1ccccc1`, the Ki in assay [1] worked out at 2550 nM. In assay [2], this compound yielded a Ka of 2.94 min⁻¹.
